These results are taken from patent US20230141603A1, “BENZODIAZEPINE DERIVATIVES AS GABA A GAMMA1 PAM” (Hoffmann-La Roche Inc., priority 2021, published 2023).

For orientation: Ki means the dissociation constant of the complex between target and ligand, obtained from inhibition or displacement. The low end stands for higher affinity, the high end for lower affinity.

The target of this assay is T1, h-GABAA α2β2γ1 (Homo sapiens, UniProt P47869+Q8N1C3).
T1 sequence (P47869 29-451): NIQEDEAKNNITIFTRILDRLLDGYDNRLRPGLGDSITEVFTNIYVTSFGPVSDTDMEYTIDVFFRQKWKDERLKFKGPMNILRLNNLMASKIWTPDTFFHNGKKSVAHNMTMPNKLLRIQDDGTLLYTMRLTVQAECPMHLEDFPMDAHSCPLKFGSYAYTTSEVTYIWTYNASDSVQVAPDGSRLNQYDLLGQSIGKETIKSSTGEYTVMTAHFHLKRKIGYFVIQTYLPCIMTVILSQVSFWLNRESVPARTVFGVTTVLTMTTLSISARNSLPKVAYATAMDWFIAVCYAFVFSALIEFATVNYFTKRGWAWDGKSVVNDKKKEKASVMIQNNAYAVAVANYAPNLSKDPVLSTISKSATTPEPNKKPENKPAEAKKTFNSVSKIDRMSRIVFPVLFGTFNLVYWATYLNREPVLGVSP
T1 sequence (P47870 25-512 partner limits assumed): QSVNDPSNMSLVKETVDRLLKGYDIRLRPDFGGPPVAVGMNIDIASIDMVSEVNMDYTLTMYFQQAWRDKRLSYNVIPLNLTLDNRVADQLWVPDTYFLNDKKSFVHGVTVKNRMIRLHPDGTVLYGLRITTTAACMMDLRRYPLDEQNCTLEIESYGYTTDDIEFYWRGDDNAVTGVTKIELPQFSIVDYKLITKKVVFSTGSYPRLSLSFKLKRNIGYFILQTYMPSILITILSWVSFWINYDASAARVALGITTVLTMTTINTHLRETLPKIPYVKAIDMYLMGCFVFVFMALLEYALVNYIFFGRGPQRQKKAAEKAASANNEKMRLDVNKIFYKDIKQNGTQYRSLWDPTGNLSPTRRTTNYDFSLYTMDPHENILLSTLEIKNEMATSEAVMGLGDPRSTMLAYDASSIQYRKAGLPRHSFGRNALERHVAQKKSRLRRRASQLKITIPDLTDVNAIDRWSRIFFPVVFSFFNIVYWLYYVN
T1 sequence (Q8N1C3 36-465): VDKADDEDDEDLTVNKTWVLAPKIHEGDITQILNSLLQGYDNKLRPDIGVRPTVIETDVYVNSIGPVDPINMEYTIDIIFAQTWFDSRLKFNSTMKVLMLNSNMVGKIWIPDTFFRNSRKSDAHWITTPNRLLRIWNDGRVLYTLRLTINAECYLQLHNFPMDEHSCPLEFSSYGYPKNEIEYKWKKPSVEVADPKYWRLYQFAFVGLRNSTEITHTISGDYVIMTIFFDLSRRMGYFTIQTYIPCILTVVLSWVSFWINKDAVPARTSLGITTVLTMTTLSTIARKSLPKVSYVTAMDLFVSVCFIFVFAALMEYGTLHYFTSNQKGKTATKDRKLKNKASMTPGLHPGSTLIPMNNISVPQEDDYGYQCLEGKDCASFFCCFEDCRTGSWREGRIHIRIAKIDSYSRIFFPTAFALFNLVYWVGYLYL
Description: Radioligand binding assay, [3H]RO7239181 competition, HEK293F membranes. The arrangement: signal peptide of human GABAA α5 subunit (Met1 to Ser31), replacing the α2 signal peptide (N); expressed in transfected cells; host or cells: HEK293F cells (ThermoFisher R79007), membranes. On the procedure:
The affinity of compounds at GABAA γ1 subunit-containing receptors was measured by competition for [^3H]RO7239181 (67.3 Ci/mmol; Roche) binding to membranes from HEK293F cells (ThermoFisher R79007) expressing human (transiently transfected) receptors of composition […], α2β2γ1, α1β2γ1.
Harvested pellets from HEK293F cells expressing the different GABAA receptor subtypes were resuspended in Mannitol Buffer pH 7.2-7.4 (Mannitol 0.29M, Triethylamine 10 mM, Acetic acid 10 mM, EDTA 1 mM plus protease inhibitors (20 tablets Complete, Roche Diagnostics Cat. No. 05 056 489 001 per liter)), washed two times and then resuspended at 1:10 to 1:15 dilution in the same buffer. Cell disruption was performed by stirring the suspension in a Parr vessel #4637 at 435 psi for 15 minutes, and then the suspensions were centrifuged at 1000×g for 15 minutes at 4° C. (Beckman Avanti J-HC; rotor JS-4.2). The supernatant (S1) was transferred in a 21 Schott flask and the pellet (P1) was resuspended with Mannitol Buffer up to 175 ml. The resuspended pellet was transferred into a 250 ml Corning centrifugal beaker and centrifuged at 1500×g for 10 minutes at 4° C. (Beckman Avanti J-HC; rotor JS-4.2). The supernatant (S1) was then transferred in the 21 Schott flask and the pellet was discarded. The supernatants (S1) were centrifuged in 500 ml Beckman polypropylene centrifugal beaker at 15′000×g for 30 minutes at 4° C. (Beckman Avanti J-20 XP; rotor JLA-10.500). The pellet (P2) was resuspended with Mannitol Buffer 1:1 and frozen at −80° C. The supernatant (S2) was centrifuged in 100 ml Beckman polypropylene centrifugal tubes at 48000×g for 50 minutes at 4° C. (Beckman Avanti J-20 XP; rotor JA-18). The supernatant (S3) was discarded and the pellet (P3) was resuspended with 1:1 Mannitol Buffer. The P2 and P3 protein concentration was determined with the BIORAD Standard assay method with bovine serum albumin as standard and measured on the NANO-Drop 1000. The membrane suspension was aliquots (500 μl per tube) and stored at −80° C. until required. Membrane homogenates were resuspended and polytronised (Polytron PT1200E Kinematica AG) in Potassium Phosphate 10 mM, KCl 100 mM binding buffer at pH 7.4 to a final assay concentration determined with a previous experiment.
Assays were incubated to equilibrium for 1 hour at 4° C. and then, membranes were filtered onto unifilter (96-well white microplate with bonded GF/C filters preincubated 20-50 minutes in 0.3% Polyethylenimine) with a Filtermate 196 harvester (Packard BioScience) and washed 4 times with cold Potassium Phosphate 10 mM pH 7.4, KCl 100 mM binding buffer. After drying, filter-retained radioactivity was detected by liquid scintillation counting. Ki values were calculated using Excel-Fit (Microsoft) and are the means of two determinations.
`COCCc1nnc2n1-c1ccc(Cl)c(Cl)c1C(c1c(F)cccc1F)=NC2` [Example 19, 7,8-dichloro-6-(2,6-difluorophenyl)-1-(2-methoxyethyl)-4H-[1,2,4]triazolo[4,3-a][1,4]benzodiazepine] gave a Ki of 0.026 µM. This counts as double-digit nanomolar. The figure for `Cc1nnc2n1-c1ccc(C(F)(F)F)c(Cl)c1C(c1c(F)cccc1F)=NC2` [Example 40, 7-chloro-6-(2,6-difluorophenyl)-1-methyl-8-(trifluoromethyl)-4H-[1,2,4]triazolo[4,3-a][1,4]benzodiazepine] is 0.0268 µM; for `Cc1nnc2n1-c1ccc(Cl)c(Cl)c1C(c1ccccc1F)=NC2` [Example 4, 7,8-dichloro-6-(2-fluorophenyl)-1-methyl-4H-[1,2,4]triazolo[4,3-a][1,4]benzodiazepine] it is 0.0658 µM; for `Fc1ccccc1C1=NCc2nnc(C3CC3)n2-c2ccc(Br)c(Cl)c21` [Example 2, 8-bromo-7-chloro-1-cyclopropyl-6-(2-fluorophenyl)-4H-[1,2,4]triazolo[4,3-a][1,4]benzodiazepine] it is 0.0479 µM. `Fc1cccnc1C1=NCc2nnc(-c3cccnn3)n2-c2ccc(C(F)(F)F)c(Cl)c21` [Example 72, 7-chloro-6-(3-fluoro-2-pyridyl)-1-pyridazin-3-yl-8-(trifluoromethyl)-4H-[1,2,4]triazolo[4,3-a][1,4]benzodiazepine] had an inhibition constant (Ki) of 0.0301 µM. Compared with the last compound, the Ki is about 1.6-fold lower. In the case of `Fc1cccc(F)c1C1=NCc2nncn2-c2ccc(Br)c(Cl)c21` [Example 7, 8-bromo-7-chloro-6-(2,6-difluorophenyl)-4H-[1,2,4]triazolo[4,3-a][1,4]benzodiazepine] it was 0.0085 µM. For `Clc1cccnc1C1=NCc2nnc(-c3cccnn3)n2-c2ccc(Br)c(Cl)c21` [Example 47, 8-bromo-7-chloro-6-(3-chloro-2-pyridyl)-1-pyridazin-3-yl-4H-[1,2,4]triazolo[4,3-a][1,4]benzodiazepine], the Ki was determined as 0.0159 µM. In turn, `Cc1ccc2c(c1Cl)C(c1c(F)cccc1F)=NCc1nncn1-2` [Example 17, 7-chloro-6-(2,6-difluorophenyl)-8-methyl-4H-[1,2,4]triazolo[4,3-a][1,4]benzodiazepine] had an inhibition constant (Ki) of 0.0198 µM. The figure for `Fc1cccnc1C1=NCc2nnc(C3CC3)n2-c2ccc(Cl)c(Cl)c21` [Example 65, 7,8-dichloro-1-cyclopropyl-6-(3-fluoro-2-pyridyl)-4H-[1,2,4]triazolo[4,3-a][1,4]benzodiazepine] is 0.0649 µM.

With `COc1ccc2c(c1Cl)C(c1c(F)cccc1F)=NCc1nnc(-c3cccnc3)n1-2` [Example 62, 7-chloro-6-(2,6-difluorophenyl)-8-methoxy-1-(3-pyridyl)-4H-[1,2,4]triazolo[4,3-a][1,4]benzodiazepine], the Ki stood at 0.0553 µM. The Ki values of the last two compounds are within 1.5-fold of each other. The compound `Fc1cccc(F)c1C1=NCc2nnc(-c3cccnn3)n2-c2ccc(C(F)(F)F)c(Cl)c21` [Example 38, 7-chloro-6-(2,6-difluorophenyl)-1-pyridazin-3-yl-8-(trifluoromethyl)-4H-[1,2,4]triazolo[4,3-a][1,4]benzodiazepine] displayed an inhibition constant Ki of 0.0126 µM. Compound `Cc1nnc2n1-c1ccc(Cl)c(Cl)c1C(c1c(F)cccc1F)=NC2` [Example 5, 7,8-dichloro-6-(2,6-difluorophenyl)-1-methyl-4H-[1,2,4]triazolo[4,3-a][1,4]benzodiazepine] showed a Ki of 0.0066 µM. As to `CC(F)(F)c1ccc2c(c1Cl)C(c1c(F)cccc1F)=NCc1nncn1-2` [Example 21, 7-chloro-8-(1,1-difluoroethyl)-6-(2,6-difluorophenyl)-4H-[1,2,4]triazolo[4,3-a][1,4]benzodiazepine], the inhibition constant (Ki) was 0.052 µM. This Ki is about 7.9-fold higher than that of the compound before.

For the compound `Cc1nnc2n1-c1ccc(Br)c(Cl)c1C(c1c(F)cccc1Cl)=NC2` [Example 50, 8-bromo-7-chloro-6-(2-chloro-6-fluoro-phenyl)-1-methyl-4H-[1,2,4]triazolo[4,3-a][1,4]benzodiazepine], the inhibitory constant (Ki) came to 0.0047 µM. Compound `Cn1cc(-c2nnc3n2-c2ccc(Cl)c(Cl)c2C(c2ncccc2F)=NC3)cn1` [Example 58, 7,8-dichloro-6-(3-fluoro-2-pyridyl)-1-(1-methylpyrazol-4-yl)-4H-[1,2,4]triazolo[4,3-a][1,4]benzodiazepine] came in with an inhibitory constant (Ki) of 0.0331 µM. This Ki is about 7-fold higher than that of the compound before. The figure for `O=c1[nH]nc2n1-c1ccc(Br)c(Cl)c1C(c1ccccc1F)=NC2` [Example 26, 8-bromo-7-chloro-6-(2-fluorophenyl)-2,4-dihydro-[1,2,4]triazolo[4,3-a][1,4]benzodiazepin-1-one] is 0.0316 µM; for `Fc1cccnc1C1=NCc2nnc(-c3cccnn3)n2-c2ccc(Br)c(Cl)c21` [Example 45, 8-bromo-7-chloro-6-(3-fluoro-2-pyridyl)-1-pyridazin-3-yl-4H-[1,2,4]triazolo[4,3-a][1,4]benzodiazepine] it is 0.0158 µM. As to `Fc1cccnc1C1=NCc2nncn2-c2ccc(Br)c(Cl)c21` [Example 29, 8-bromo-7-chloro-6-(3-fluoro-2-pyridyl)-4H-[1,2,4]triazolo[4,3-a][1,4]benzodiazepine], affinity was put at a Ki of 0.0474 µM.

Compound `Cc1ccc2c(c1Cl)C(c1c(F)cccc1F)=NCc1n[nH]c(=O)n1-2` [Example 16, 7-chloro-6-(2,6-difluorophenyl)-8-methyl-2,4-dihydro-[1,2,4]triazolo[4,3-a][1,4]benzodiazepin-1-one] had a Ki of 0.0265 µM. In the case of `CO[C@H]1C[C@H](c2nnc3n2-c2ccc(Cl)c(Cl)c2C(c2c(F)cccc2F)=NC3)C1` [Example 91, trans-7,8-dichloro-6-(2,6-difluorophenyl)-1-(3-methoxycyclobutyl)-4H-[1,2,4]triazolo[4,3-a][1,4]benzodiazepine] it was 0.0363 µM; in that of `COc1ccc2c(c1Cl)C(c1c(F)cccc1F)=NCc1nnc(-c3cccnn3)n1-2` [Example 57, 7-chloro-6-(2,6-difluorophenyl)-8-methoxy-1-pyridazin-3-yl-4H-[1,2,4]triazolo[4,3-a][1,4]benzodiazepine], 0.0579 µM.
